Two compounds from patent US12070452B2, “Compounds targeting HSP110 protein for cancer treatment” (INSERM (Institut National de la Santé et de la Recherche …, priority 2018, dated 2024) can be followed below.

One test concerns the target T1, HSP110:STAT3 complex (Homo sapiens, UniProt Q92598).
T1 construct: disrupting HSP110:STAT3 complex within the cell using human colorectal SW480 cancer cells; endogenous in cells; host or cells: SW480 cells carrying control shRNA (shCtrl); sh110 cells as HSP110-depleted control
The experiment in a line: Immunoprecipitation of HSP110:STAT3 complex in SW480 cells. It counts as cell-based. Conditions: SW480 shCtrl cells, 10 μM, 48 h. As for the experimental part: FIG. 2A: Immunoprecipitation (IP) analysis of HSP110 protein (first line), STAT3 protein (second line) compared with total Immunoglobuline (Ig) and actin in SW480 cells treated with (from left to the right column) non-relevant antibody as control (called NT a Normal rabbit IgG (sc-2027) from Santa Cruz Biotechnologies), compound 52 (related to formula (III)), compound 33 (related to formula (II)), compound 51 (related to formula (IV)) and comparative compound 61 at a concentration of 10 μM during 48 h on shCtrl cells transfected with shRNA for shRNA control (referenced ShCtrl IP:STAT3 for the five first columns) or HSP110-silencing (sh110) (referenced sh110-IP:STAT3 for the two last columns) (from the left to the right columns). Immunoprecipitation analysis of HSP110 (first line), STAT3 (second line) compared with total Ig and actin (second blot in the right) is observed with shCtrl cells transfected with shRNA for shRNA control (shCtrl) or HSP110-silencing (sh110) (left to right columns).
FIG. 2B: Quantification of HSP110:STAT3 disruption in percentage considering the total amount of HSP110 protein normalized by the signal intensity of the Ig band of FIG. 1 panel A. (Ordinate: Percentage of STAT3:HSP110 protein interaction (scale 50)). The histogram measured quantification in percentage for ShCtrl IP: STAT3 treated with Ctrl, compounds 52, 33, 51 and comparative compound 61, and for shCtrl cells transfected with shRNA for shRNA control referenced ShCtrl IP: STAT3) or HSP110-silencing (sh110) (referenced sh110-IP: STAT3) (from the left to the right column)
Immunoprecipitation test were realized on human colorectal cancer cells (SW480 and HCT116 cell lines), using a control depleted in HSP110 called Sh110 and a not depleted cells in HSP110. STAT3 phosphorylation is then […] by compounds 33 and 52. Depletion of HSP110 in the negative control blocked the phosphorylation of STAT3 without affecting STAT3 overall levels (FIGS. 2 and 3).

A further test relates to HCT116 cells. As to the kind of experiment: Cell proliferation, Cell Trace Violet flow cytometry, HCT116. The format is cell-based, human. The note with it: HCT116 cells with shRNA control, 10 μM, 96 h. The protocol:
FIG. 4B: Relative quantification of cell proliferation in HCT116 cells transfected with shRNA for shRNA control (shCtrl) (from the first to the fourth columns from left to right) or HSP110-silencing (sh110) ((from the fifth to the last columns, from left to right) left to right) treated with Ctrl (DMSO), compound 33, compound 52, and comparative compound 61 at a concentration of 10 μM during 96 h (Histogram from the left to the right). Ordinate: Percentage of HCT116 cell proliferation (scale 20) for the lower figure. Statistical analysis has been performed by ANOVA **: (p<0.05); ***: p<0.005. Western blot of HSP110 and actin (first and second line of blots) for the shCtrl HCT116 cells and sh110 HCT116 cells (first and second columns).
Colorectal cells lines were purchased from the American Type Culture Collection. CT-26 and HCT116 were cultured in Roswell Park Memorial Institute 1640 medium. […]
Proliferation was determined by staining cells with Cell Trace Violet (Invitrogen-C34557) according to the manufacturer's procedure. Cell divisions were detected over 96 h by flow cytometry (LSRII cytometer) and the number of cell generations was estimated by ModFit software. […]
(In general: A flow cytometer gives signals particle by particle.)

In another test the target is T2, HSP110/Myd88 interaction (Homo sapiens, UniProt Q92598).
T2 construct: endogenous in cells
T2 sequence (Q92598 2-858 limits assumed): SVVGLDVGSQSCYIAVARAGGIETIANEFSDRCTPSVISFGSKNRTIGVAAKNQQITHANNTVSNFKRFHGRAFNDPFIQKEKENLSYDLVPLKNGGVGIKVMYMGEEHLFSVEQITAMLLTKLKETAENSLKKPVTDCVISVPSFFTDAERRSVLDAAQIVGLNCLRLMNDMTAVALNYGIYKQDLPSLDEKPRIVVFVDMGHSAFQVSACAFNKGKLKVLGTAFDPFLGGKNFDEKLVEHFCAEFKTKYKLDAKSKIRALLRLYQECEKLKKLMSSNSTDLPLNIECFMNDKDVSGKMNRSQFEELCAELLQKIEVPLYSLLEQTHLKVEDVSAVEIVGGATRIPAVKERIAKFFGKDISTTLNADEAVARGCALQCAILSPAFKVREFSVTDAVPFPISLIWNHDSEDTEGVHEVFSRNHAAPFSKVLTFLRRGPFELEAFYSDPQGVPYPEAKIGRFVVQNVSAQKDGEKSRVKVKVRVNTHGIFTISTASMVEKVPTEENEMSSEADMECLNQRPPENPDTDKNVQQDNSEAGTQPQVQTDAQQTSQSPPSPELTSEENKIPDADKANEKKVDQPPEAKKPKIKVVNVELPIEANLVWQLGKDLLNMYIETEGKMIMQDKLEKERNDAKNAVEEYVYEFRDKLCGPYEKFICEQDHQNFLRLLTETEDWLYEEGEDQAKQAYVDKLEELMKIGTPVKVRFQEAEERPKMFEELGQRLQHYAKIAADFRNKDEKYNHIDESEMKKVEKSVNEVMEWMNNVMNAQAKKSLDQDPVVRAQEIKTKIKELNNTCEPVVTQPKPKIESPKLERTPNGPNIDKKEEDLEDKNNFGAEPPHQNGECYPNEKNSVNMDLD
The experiment in a line: Immunoprecipitation of HSP110/Myd88 in DLBCL cell line. Conditions: IP Myd88, Western Blot. The format is cell-based. The text has this:
FIG. 10A: Immunoprecipitation (IP) analysis of HSP110 (first line), Myd88 (second line), heavy chains (third line) and actin (fourth line) in large B cell lymphoma cell lines (DLBCL).
Left part of FIG. 10A (“Inputs”): treated with (from left to right column of the left part of FIG. 10A) DMSO, compound 52 (5052), compound 33 (5033) and compound 61 (5061) (Negative control);
Middle part of FIG. 10A (“IP Myd88”): treated with (from left to right column of the middle part of FIG. 10A) DMSO, compound 52, compound 33 and compound 61 (as the negative control); Myd88 was immunoprecipitated with an antibody specifically directed against Myd88.
MyD88 was immuno-precipitated from the cell line which has been non-treated or treated with the HSP110 inhibitors.
A general note: In western blotting, separated proteins are transferred to a membrane and probed.

For another test, the target named is T3, human protein HSP110 (Homo sapiens, UniProt Q92598).
T3 construct: DNA coding the NBD-HSP110 (from human-HSP110)
T3 sequence (Q92598 whole entry, looked up): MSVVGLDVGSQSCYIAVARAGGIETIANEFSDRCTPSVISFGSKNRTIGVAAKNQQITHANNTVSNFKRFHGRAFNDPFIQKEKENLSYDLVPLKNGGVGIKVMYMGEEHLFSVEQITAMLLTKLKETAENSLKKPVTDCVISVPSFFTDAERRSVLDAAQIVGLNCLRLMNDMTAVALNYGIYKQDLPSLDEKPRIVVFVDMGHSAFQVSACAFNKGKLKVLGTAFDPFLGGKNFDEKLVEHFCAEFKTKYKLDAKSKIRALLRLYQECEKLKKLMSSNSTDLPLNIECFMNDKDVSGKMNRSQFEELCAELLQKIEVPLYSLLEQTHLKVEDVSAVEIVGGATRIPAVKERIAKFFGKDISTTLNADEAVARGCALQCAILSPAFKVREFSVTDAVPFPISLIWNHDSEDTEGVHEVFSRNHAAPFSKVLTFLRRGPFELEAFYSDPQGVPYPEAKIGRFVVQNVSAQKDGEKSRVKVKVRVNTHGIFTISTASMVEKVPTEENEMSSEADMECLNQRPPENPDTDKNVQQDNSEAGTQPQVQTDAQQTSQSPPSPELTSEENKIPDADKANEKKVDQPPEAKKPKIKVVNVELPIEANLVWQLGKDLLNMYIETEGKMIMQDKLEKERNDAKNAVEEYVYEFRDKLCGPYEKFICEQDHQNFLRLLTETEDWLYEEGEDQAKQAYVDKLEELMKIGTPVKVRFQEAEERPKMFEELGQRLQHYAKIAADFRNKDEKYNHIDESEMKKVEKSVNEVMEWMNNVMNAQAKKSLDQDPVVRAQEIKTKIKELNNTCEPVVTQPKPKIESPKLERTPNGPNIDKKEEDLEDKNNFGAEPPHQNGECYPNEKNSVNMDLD
As to the kind of experiment: HSP110 anti-aggregation function (luciferase substrate test). It counts as biochemical. Conditions: human HSP110 1.5 μM with firefly luciferase, 30 min at 42° C.; read-out: IC50 of HSP110 anti-aggregating activity. The protocol:
Anti-aggregation function of HSP110 was evaluated as described by O H et al (The Journal of biological chemistry 274, 15712-15718 (1999)). The human protein HSP110 (obtained as described above) at a concentration of 1.5 μM was incubated with firefly luciferase (from Sigma—from Photinus pyralis) in reaction buffer and heated in water bath for 30 min at 42° C.
Compounds of the present invention were added in reaction buffer to achieve the indicated concentrations and the final DMSO concentration was held constant at 1%. The heated reaction was diluted 10 times into buffer containing 60% of rabbit reticulocytelysate and incubated for 2 hours. The luciferase activity was measured by diluting 5 times the solution in HEPES and adding 5 μL of the solution in luciferase substrate (50 μL of Luciferase Assay System—Promega E1501 diluted in HEPES). The bioluminescence was reading with Envision Perkin Elmer.
The percentage of activity (x) was calculated by using the following equation: x=[(A−B)/(C−B)]×100, where (A) is the luciferase luminescence in presence of compounds of the invention, (B) in absence of HSP110 and (C) in presence of DMSO (Control). The percentage of total folding HSP110-promoted (mean=36%) was calculated considering as 100% the luminescence of luciferase incubated with HSP110 without heat shock. The IC50 were calculated from the dose-response curves, which were fitted by GraphPrism (Equation: Y=100/(1+10^((Log IC50−X)*HillSlope)).

Each structure is given as a SMILES string.

T1 sequence (Q92598 2-858 limits assumed, one chain of several): as the sequence (Q92598 2-858 limits assumed) above

Take `COc1ccc(-c2ncc(-c3ncc(-c4cc(OC)c(OC)c(OC)c4)cc3/C=C/c3ccccc3)cc2C)cc1OC` [compound 33, (E)-6′-(3,4-Dimethoxyphenyl)-5′-methyl-3-styryl-5-(3,4,5-trimethoxyphenyl)-2,3′-bipyridine]: on HSP110:STAT3 complex, the “percentage of interaction of STAT3:HSP110” value amounted to 20%. Further, in the test with HCT116 cells, the “hampering of cell proliferation” value is recorded as “around 40%”. Further, the HSP110/Myd88 interaction entry at HSP110/Myd88 interaction is “abrogate”. Further, the IC50 (commonly the concentration at which inhibition is half-maximal) on human protein HSP110 is 58.3 ± 1.7 µM.
For `COc1cc(-c2cnc(-c3cnc(-c4cc(OC)c(OC)c(OC)c4)c(C)c3)c(/C=C/c3ccccc3)c2)cc(OC)c1OC` [compound 52, (E)-5′-Methyl-3-styryl-5,6′-bis(3,4,5-trimethoxyphenyl)-2,3′-bipyridine], in that order: 5%, “around 40%”, “abrogate” and 86 ± 1.5 µM.
